This passage reports Toxicity and Motility results from ChEMBL document CHEMBL2363022, “Malaria Box Schistosomiasis Screening Data” (2013).

Structures are written as SMILES.

Format in all cases: functional
Assay [1] has as its system Schistosoma mansoni. Details: scale not given here.
Assay [2] has as its system Schistosoma mansoni. Set-up: scale not given here. This is another data set of the same source.
In assay [3] the test system is Schistosoma mansoni. Set-up: scale not given here. This is another data set of the same source.
In assay [4] the test system is Schistosoma mansoni. The assay is described as follows: MMV: Toxicity @ 5 uM to 4-5 Schistosoma mansoni adult males after 24 h on a scale of 0 (none) - 4 (most). Includes short descriptors of effects as judged visually (PMID:19597541). Only those Malaria box 'drug-like' cpds yielding the most severe phenotypes vs. somules were tested. Caffrey group UCSF.
The subject of assay [5] is Schistosoma mansoni. Put plainly: MMV: Toxicity @ 5 uM to 4-5 Schistosoma mansoni adult males after 48 h on a scale of 0 (none) - 4 (most). Includes short descriptors of effects as judged visually (PMID:19597541). Only those Malaria box 'drug-like' cpds yielding the most severe phenotypes vs. somules were tested. Caffrey group UCSF.
The test system of assay [6] is Schistosoma mansoni. The assay is described as follows: MMV: Toxicity @ 5 uM to 4-5 Schistosoma mansoni adult males after 72 h on a scale of 0 (none) - 4 (most). Includes short descriptors of effects as judged visually (PMID:19597541). Only those Malaria box 'drug-like' cpds yielding the most severe phenotypes vs. somules were tested. Caffrey group UCSF.
Assay [7] has as its system Schistosoma mansoni. Put plainly: MMV: Motility assay. Percent change (relative to DMSO controls) @ 5 uM of movement of 4-5 Schistosoma mansoni adult males after 24 h as measured by the Consensus Voting Luminance Difference algorithm available on WormAssay (PMID:22303493). Occasional incongruence ocurrs between the motility scores and the visually adjudicated 'toxicity scores'. In these cases the 'toxicity score' should be prioritized. Only those Malaria box 'Drug-like' cpds yielding the most severe phenotypes vs. somules were tested. Caffrey group UCSF.

Assay [8] concerns Schistosoma mansoni. The assay is described as follows: MMV: Motility assay. Percent change (relative to DMSO controls) @ 5 uM of movement of 4-5 Schistosoma mansoni adult males after 48 h as measured by the Consensus Voting Luminance Difference algorithm available on WormAssay (PMID:22303493). Occasional incongruence ocurrs between the motility scores and the visually adjudicated 'toxicity scores'. In these cases the 'toxicity score' should be prioritized. Only those Malaria box 'Drug-like' cpds yielding the most severe phenotypes vs. somules were tested. Caffrey group UCSF.

The subject of assay [9] is Schistosoma mansoni. Put plainly: MMV: Motility assay. Percent change (relative to DMSO controls) @ 5 uM of movement of 4-5 Schistosoma mansoni adult males after 72 h as measured by the Consensus Voting Luminance Difference algorithm available on WormAssay (PMID:22303493). Occasional incongruence ocurrs between the motility scores and the visually adjudicated 'toxicity scores'. In these cases the 'toxicity score' should be prioritized. Only those Malaria box 'Drug-like' cpds yielding the most severe phenotypes vs. somules were tested. Caffrey group UCSF.

`CCn1nc(-c2ccc(C(=O)OC)cc2)nc2c(=O)n(C)c(=O)nc1-2`: the Toxicity came out at 4 in assay [1]; 4 in assay [2]; 4 in assay [3]; 0 in assay [4]; 0 in assay [5]; 0 in assay [6]. The Motility came to 99.1 in assay [7], 97 in assay [8] and 78.5 in assay [9].
In the case of `Cc1ccc(CN2CCC(C(=O)Nc3ccc(-c4cc5ccccc5[nH]4)cc3)CC2)o1`, the Toxicity in [1] was 0; in [2] it was 4; in assay [3], 4; in assay [4] it was 0; in [5], 0; in assay [6] it was 0. Moreover, the Motility is 122.1 in assay [7], 126.5 in [8] and “No effect” in assay [9].
In the case of `CN(C)CCCNCc1ccc(-c2ccc(F)c(Cl)c2)o1.Cl`, the Toxicity came out at 2 in [1]; 3 in [2]; 3 in assay [3]; 2 in assay [4]; 2 in assay [5]; 2 in assay [6]. For the same molecule, the Motility was determined as 26.2 in assay [7], 62.2 in [8] and 65.7 in [9].
As for `CCN(CC)CCCNc1nc(-c2ccc(Cl)cc2)nc2ccccc12`, the Toxicity in assay [1] is on record as 2; in assay [2], 4; in assay [3], 4; in [4] it was 0; in assay [5], 0; in assay [6], 0. The Motility in [7] is 86.7; in assay [8] it was 99.5; in assay [9], 56.
`Cc1cccc(-n2ncc3c(O)nc(-n4nc(C)cc4NC(=O)c4cc5ccccc5o4)nc32)c1`: the Toxicity is listed as 1 in assay [1]; 1 in assay [2]; 4 in assay [3]; 0 in assay [4]; 3 in [5]; 4 in assay [6]. The Motility in [7] is 6; in assay [8] it was 1; in assay [9], “Slow, on sides, dark, tegument damage”.
As to `Cl.N=c1n(CCN2CCCCC2)c2ccccc2n1CC(O)c1cccc(Br)c1` (centres undefined), the Toxicity stood at 2 in assay [1]; 2 in assay [2]; 4 in assay [3]; 0 in [4]; 0 in assay [5]; 0 in assay [6]. The figures for the Motility in assay [7], in [8] and in assay [9] were 92.2, 74.8 and 114.5, respectively.
With `Cl.Clc1cc(Br)ccc1-c1ccc(CNCC2CCNCC2)o1`, the Toxicity in [1] came out at 4; in [2] it was 4; in assay [3] it was 4; in assay [4], 2; in [5] it was 3; in assay [6], 2. Further, the Motility is on record as 27.8 in [7]; 52.5 in assay [8]; “On sides, dark” in [9].
Take `CCN(CC)CCNc1ncnc2c1[nH]c1ccc(Br)cc12`: the Toxicity in [1] stood at 4; in [2], 4; in [3], 4; in assay [4], 0; in [5], 0; in assay [6], 0. For the same molecule, the Motility result is “No effect” in assay [7], 119 in assay [8] and “No effect” in assay [9].
In the case of `COc1ccc(-c2nc3cc(Cc4ccc5[nH]c(-c6ccc(OC)cc6)nc5c4)ccc3[nH]2)cc1`, the Toxicity in assay [1] came to 3; in [2], 4; in assay [3], 4; in assay [4], 3; in assay [5], 3; in [6] it was 4. The Motility is 17.2 in assay [7], 24.7 in assay [8] and 12.4 in assay [9].
Turning to `COc1cc2c(cc1OC)C1=NNC(=O)C1=NC(C)(C)C2`, the Toxicity came to 0 in assay [1]; 4 in assay [2]; 4 in assay [3]; 0 in [4]; 0 in [5]; 0 in [6]. The Motility was 140 in assay [7], 120 in [8] and “No effect” in assay [9].
For `COc1ccc2nc(C)cc(Nc3ccc(Cl)cc3)c2c1`, the Toxicity in assay [1] was found to be 3; in assay [2], 4; in [3] it was 4; in [4], 2; in assay [5] it was 2; in [6], 3. Further, the Motility was 75.2 in [7]; 87.4 in [8]; “Slow, on sides, dark” in assay [9].
For the molecule `COCCNCC(O)Cn1c2ccc(Cl)cc2c2cc(Cl)ccc21` (centres undefined), the Toxicity in assay [1] was found to be 4; in assay [2], 4; in assay [3], 4; in assay [4], 0; in assay [5] it was 0; in assay [6], 0. For the same molecule, the values for the Motility in [7], in [8] and in assay [9] were 94, 94 and “No effect”, respectively.
As to `CC(C)=CCN1CCC(C(=O)Nc2ccc(-c3nc4ccccc4[nH]3)cc2)CC1`, the Toxicity amounted to 1 in [1]; 1 in [2]; 1 in [3]; 0 in assay [4]; 0 in assay [5]; 0 in [6]. The results for the Motility in assay [7], in [8] and in [9] were 139.1, 93.7 and 119, respectively.
Consider `OC(CNC1CCCC1)Cn1c2ccccc2c2ccccc21` (centres undefined), for which the Toxicity in assay [1] is reported as 1; in assay [2] it was 4; in assay [3], 4; in assay [4], 0; in assay [5] it was 0; in assay [6], 0. Further, the Motility entry was “No effect” in assay [7], 83 in [8] and “No effect” in assay [9].
As to `Br.CCN(CC)S(=O)(=O)c1ccc(-c2csc(Nc3ccc(C)c(C)c3)n2)cc1`, the Toxicity was 2 in assay [1]; 2 in assay [2]; 2 in assay [3]; 2 in [4]; 2 in assay [5]; 4 in [6]. Besides, the Motility is 21.8 in assay [7], 3.9 in assay [8] and 2.5 in [9].
Regarding `CCCCc1ccc(NS(=O)(=O)c2cc3c4c(c2)CCN4C(=O)CC3)cc1`, the Toxicity is 2 in assay [1]; 0 in assay [2]; 0 in [3]; 0 in assay [4]; 0 in [5]; 0 in [6]. Besides, the Motility in assay [7] is 109.4; in assay [8] it was 170.6; in [9], 80.4.
